The target of this assay is ROCK2 (Homo sapiens (Human), UniProt O75116). Nature of the assay: ROCK assay (LABCHIP 3000 peptide phosphorylation assay). Conditions: 5 μM ATP, 1.5 μM peptide substrate, dose-response. The assay is classed as biochemical. As for the experimental part:
The effectiveness of compounds of the present invention as ROCK inhibitors can be determined in a 30 μL assay containing 20 mM HEPES, pH 7.5, 20 mM MgCl2, 0.015% Brij-35, 4 mM DTT, 5 μM ATP and 1.5 μM peptide substrate (FITC-AHA-AKRRRLSSLRA-OH) (SEQ ID No. 1). Compounds were dissolved in DMSO so that the final concentration of DMSO was <2%, and the reaction was initiated with Rho kinase variants. After incubation, the reaction was terminated by the addition of EDTA and the phosphorylated and non-phosphorylated peptides separated using a LABCHIP® 3000 Reader (Caliper Life Sciences). […] Compounds were tested in dose-response format, and the inhibition of kinase activity was calculated at each concentration of compound. The inhibition data were fit using a curve-fitting program to determine the IC50; i.e., the concentration of compound required to inhibit 50% of kinase activity.

This note sets out measurements from patent US11306081B2, “Phenylacetamides as inhibitors of rock” (BRISTOL-MYERS SQUIBB COMPANY, priority 2017, dated 2022).

As usually defined, the IC50 is the midpoint of a concentration-inhibition curve.

Structures are written as SMILES.

Sequence of ROCK2 (O75116 whole entry, species assumed): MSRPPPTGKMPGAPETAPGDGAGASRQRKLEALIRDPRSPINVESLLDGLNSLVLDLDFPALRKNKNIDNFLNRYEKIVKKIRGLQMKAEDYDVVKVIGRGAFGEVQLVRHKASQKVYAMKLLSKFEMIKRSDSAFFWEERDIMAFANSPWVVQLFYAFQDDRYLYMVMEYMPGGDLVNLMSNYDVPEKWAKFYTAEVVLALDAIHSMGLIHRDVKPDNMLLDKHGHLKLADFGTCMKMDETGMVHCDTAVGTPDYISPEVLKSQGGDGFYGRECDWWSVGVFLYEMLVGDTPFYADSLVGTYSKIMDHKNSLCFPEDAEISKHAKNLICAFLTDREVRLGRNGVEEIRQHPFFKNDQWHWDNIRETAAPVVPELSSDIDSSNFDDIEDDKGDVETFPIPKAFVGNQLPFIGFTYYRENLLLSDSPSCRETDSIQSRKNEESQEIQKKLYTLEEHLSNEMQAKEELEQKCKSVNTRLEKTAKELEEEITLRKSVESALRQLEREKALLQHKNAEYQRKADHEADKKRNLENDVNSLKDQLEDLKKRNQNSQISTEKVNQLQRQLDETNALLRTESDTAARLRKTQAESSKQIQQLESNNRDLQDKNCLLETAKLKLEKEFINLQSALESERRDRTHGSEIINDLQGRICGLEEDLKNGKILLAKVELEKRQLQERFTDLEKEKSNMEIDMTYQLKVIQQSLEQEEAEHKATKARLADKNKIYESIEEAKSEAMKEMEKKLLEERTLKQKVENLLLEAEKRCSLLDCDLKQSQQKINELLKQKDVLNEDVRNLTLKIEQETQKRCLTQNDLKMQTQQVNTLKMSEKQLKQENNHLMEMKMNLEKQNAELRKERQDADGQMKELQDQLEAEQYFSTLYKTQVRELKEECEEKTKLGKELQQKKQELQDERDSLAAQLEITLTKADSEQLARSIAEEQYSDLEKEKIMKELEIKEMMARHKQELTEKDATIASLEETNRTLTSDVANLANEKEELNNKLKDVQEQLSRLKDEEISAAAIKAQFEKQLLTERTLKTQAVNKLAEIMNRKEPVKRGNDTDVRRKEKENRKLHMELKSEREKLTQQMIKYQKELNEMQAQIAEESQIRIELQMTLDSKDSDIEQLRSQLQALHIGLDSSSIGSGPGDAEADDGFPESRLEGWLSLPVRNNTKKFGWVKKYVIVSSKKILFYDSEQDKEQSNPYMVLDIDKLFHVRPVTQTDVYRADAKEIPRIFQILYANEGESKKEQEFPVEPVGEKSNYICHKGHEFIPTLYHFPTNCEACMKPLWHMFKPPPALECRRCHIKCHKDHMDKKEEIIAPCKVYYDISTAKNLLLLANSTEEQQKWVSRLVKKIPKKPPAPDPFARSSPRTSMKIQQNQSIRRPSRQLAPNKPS

Molecule `Cc1sc(NC(=O)Cc2ccc(Oc3ncccc3C(N)=O)c(Cl)c2)nc1-c1ccccc1F` [Example 080, 2-(2-chloro-4-(2-((4-(2-fluorophenyl)-5-methylthiazol-2-yl)amino)-2-oxoethyl)phenoxy) nicotinamide] displayed an IC50 of 15 nM. That is a double-digit nanomolar value.

Molecule `NC(=O)c1cccnc1Oc1ccc(CC(=O)Nc2nc(-c3ccc4c(c3)OCCO4)cs2)cc1` [Example 057, 2-(4-(2-((4-(2,3-dihydrobenzo[b][1, 4]dioxin-6-yl)thiazol-2-yl)amino)-2-oxoethyl)phenoxy) nicotinamide] had a half-maximal inhibitory concentration (IC50) of 186 nM.

With `Cc1sc(NC(=O)Cc2ccc(Oc3ncccc3C(N)=O)c(F)c2)nc1-c1cccc(F)n1` [Example 013, 2-(2-fluoro-4-(2-((4-(6-fluoropyridin-2-yl)-5-methylthiazol-2-yl)amino)-2-oxoethyl)phenoxy)nicotinamide], the IC50 is 21 nM.

Take `NC(=O)c1cccnc1Oc1ccc(CC(=O)Nc2nc3ccc(F)cc3n2CC2CC2)cc1Cl` [Example 172, 2-(2-chloro-4-(2-((1-(cyclopropyl-methyl)-6-fluoro-1H-benzo[d]-imidazol-2-yl)-amino)-2-oxo-ethyl)phenoxy)-nicotinamide]: inhibition was half-maximal at 7 nM (IC50). Against the preceding molecule, the IC50 is about 3-fold lower.

`COc1cccn2nc(NC(=O)Cc3ccc(Oc4ncccc4C(N)=O)c(F)c3)nc12` [Example 094, 2-(2-fluoro-4-(2-((8-methoxy-[1,2,4]triazolo[1,5-a]pyridin-2-yl)amino)-2-oxoethyl)phenoxy) nicotinamide]: the concentration for half-maximal inhibition (IC50) is 15 nM.

Turning to `Cn1nccc1-c1ccn2nc(NC(=O)Cc3ccc(Oc4ncccc4C(N)=O)c(F)c3)nc2c1` [Example 137, 2-(2-fluoro-4-(2-((7-(1-methyl-1H-pyrazol-5-yl)-[1,2,4]-triazolo[1,5-a]pyridin-2-yl)amino)-2-oxoethyl)-phenoxy) nicotinamide], it took 13 nM to reach half-maximal inhibition (IC50).

In turn, `Cc1cccc(-c2nc(NC(=O)Cc3ccc(Oc4ncccc4C(N)=O)c(F)c3)sc2C)n1` [Example 151, 2-(2-fluoro-4-(2-((5-methyl-4-(6-methylpyridin-2-yl)thiazol-2-yl)amino)-2-oxoethyl)phenoxy)nicotinamide] came in with an IC50 of 44 nM.

Turning to `COc1ccc(Cc2nnc(NC(=O)Cc3ccc(Oc4ncccc4C(N)=O)c(F)c3)s2)cc1OC` [Example 093, 2-(4-(2-((5-(3,4-dimethoxybenzyl)-1,3,4-thiadiazol-2-yl)amino)-2-oxoethyl)-2-fluorophenoxy)nico-tinamide], half-maximal inhibition (IC50) was put at 213 nM.

With `NC(=O)c1cccnc1Oc1ccc(CC(=O)Nc2nc3ccccc3n2CCC(F)(F)F)cc1F` [Example 154, 2-(2-fluoro-4-(2-oxo-2-((1-(3,3,3-trifluoropropyl)-1H-benzo[d]-imidazol-2-yl)-amino)ethyl)-phenoxy)nicotin-amide], the concentration for half-maximal inhibition (IC50) came out at 42 nM.

`NC(=O)c1cccnc1Oc1ccc(CC(=O)Nc2ccn(CC(F)(F)F)n2)cc1F` [Example 099, 2-(2-fluoro-4-(2-oxo-2-((1-(2,2,2-trifluoroethyl)-1H-pyrazol-3-yl)amino)ethyl)phe-noxy)nicotinamide]: the IC50 is 583 nM.

In the case of `N#Cc1cccc(-c2csc(NC(=O)Cc3ccc(Oc4ncccc4C(N)=O)cc3)n2)c1` [Example 063, 2-(4-(2-((4-(3-cyanophenyl)thia-zol-2-yl)amino)-2-oxoethyl)phenoxy) nicotinamide], half-maximal inhibition (IC50) required 339 nM.

Consider `COc1cccc2c1nc(NC(=O)Cc1ccc(Oc3ncccc3C(N)=O)c(F)c1)n2CC1CC1` [Example 163, 2-(4-(2-((1-(cyclo-propylmethyl)-4-methoxy-1H-benzo[d]imidazol-2-yl)amino)-2-oxoethyl)-2-fluorophenoxy)-nicotinamide], for which the IC50 came to 16 nM.

`Cc1sc(NC(=O)Cc2ccc(Oc3ncccc3C(N)=O)c(F)c2)nc1-c1ccnn1C` [Example 086, 2-(2-fluoro-4-(2-((5-methyl-4-(1-methyl-1H-pyrazol-5-yl)thiazol-2-yl)amino)-2-oxoethyl)phenoxy) nicotinamide] returned an IC50 of 137 nM. Against the preceding molecule, the IC50 is about 8.6-fold higher.

For `NC(=O)c1cccnc1Oc1ccc(CC(=O)Nc2nc3c(F)cccc3n2CC(F)F)cc1F` [Example 169, 2-(4-(2-((1-(2,2-difluoroethyl)-4-fluoro-1H-benzo[d]-imidazol-2-yl)-amino)-2-oxo-ethyl)-2-fluoro-phenoxy)nicotin-amide], it took 13 nM to reach half-maximal inhibition (IC50).

In the case of `NC(=O)c1cccnc1Oc1ccc(CC(=O)Nc2nc3c(F)cccc3n2CC2CC2)cc1Cl` [Example 171, 2-(2-chloro-4-(2-((1-(cyclo-propylmethyl)-4-fluoro-1H-benzo[d]-imidazol-2-yl)-amino)-2-oxo-ethyl)phenoxy)-nicotinamide], inhibition was half-maximal at 3 nM (IC50).

In the case of `Cn1nccc1-c1ccc2sc(NC(=O)Cc3ccc(Oc4ncccc4C(N)=O)c(F)c3)nc2c1` [Example 030, 2-(2-fluoro-4-(2-((5-(1-methyl-1H-pyrazol-5-yl)benzo[d]thiazol-2-yl)amino)-2-oxoethyl)phenoxy)nico-tinamide], the half-maximal inhibitory concentration (IC50) was 8 nM.

Molecule `Cc1ccc2[nH]c(NC(=O)Cc3ccc(Oc4ncccc4C(N)=O)cc3)nc2c1` [Example 068, 2-(4-(2-((5-methyl-1H-benzo[d]imidazol-2-yl)amino)-2-oxoethyl)phenoxy) nicotinamide] displayed a concentration for half-maximal inhibition (IC50) of 600 nM.

Take `Cc1sc(NC(=O)Cc2ccc(Oc3ncccc3C(N)=O)c(F)c2)nc1-c1ccccn1` [Example 087, 2-(2-fluoro-4-(2-((5-methyl-4-(pyridin-2-yl)thiazol-2-yl)amino)-2-oxoethyl)phenoxy) nicotinamide]: the IC50 was 47 nM.

Consider `Cc1nc(NC(=O)Cc2ccc(Oc3ncccc3C(N)=O)c(F)c2)sc1-c1ccccn1` [Example 012, 2-(2-fluoro-4-(2-((4-methyl-5-(pyridin-2-yl)thiazol-2-yl)amino)-2-oxoethyl)phenoxy)nic-otinamide], for which the IC50 was 38 nM. This IC50 and that of the molecule before are within 1.5-fold of each other.

The molecule `COC(=O)c1ccc2nc(NC(=O)Cc3ccc(Oc4ncccc4C(N)=O)cc3)sc2c1` [Example 070, methyl 2-(2-(4-((3-carbamoylpyridin-2-yl)oxy)phenyl)acet-amido)benzo[d]thi-azole-6-carboxylate] gave a half-maximal inhibitory concentration (IC50) of 57 nM. Against the preceding molecule, the IC50 is about 1.5-fold higher.

The molecule `NC(=O)c1cccnc1Oc1ccc(CC(=O)Nc2nc3ccccc3s2)cc1F` [Example 015, 2-(4-(2-(benzo[d]thiazol-2-ylamino)-2-oxoethyl)-2-fluorophenoxy)nicotinamide] registered a 50% inhibitory concentration (IC50) of 31 nM. Against the preceding molecule, the IC50 is about 1.8-fold lower.

`Cc1sc(NC(=O)Cc2ccc(Oc3ncccc3C(N)=O)c(F)c2)nc1-c1ccc(=O)n(C(F)F)c1` [Example 021, 2-(4-(2-((4-(1-(difluoromethyl)-6-oxo-1,6-dihydropyridin-3-yl)-5-methylthiazol-2-yl)amino)-2-oxoethyl)-2-fluorophenoxy)nicotinamide] had a half-maximal inhibitory concentration (IC50) of 53 nM. Compared with the last molecule, the IC50 is about 1.7-fold higher.

The molecule `Cc1sc(NC(=O)Cc2ccc(Oc3ncccc3C(N)=O)c(F)c2)nc1-c1cnc(N2CCN(C)CC2)nc1` [Example 039, 2-(2-fluoro-4-(2-((5-methyl-4-(2-(4-methylpiperazin-1-yl)pyrimidin-5-yl)thiazol-2-yl)amino)-2-oxoethyl)phenoxy)nico-tinamide] registered a concentration for half-maximal inhibition (IC50) of 183 nM. Against the preceding molecule, the IC50 is about 3.5-fold higher.

As for `COc1cccc(-c2nc(NC(=O)Cc3ccc(Oc4ncccc4C(N)=O)c(F)c3)sc2C)n1` [Example 043, 2-(2-fluoro-4-(2-((4-(6-methoxypyridin-2-yl)-5-methylthiazol-2-yl)amino)-2-oxoethyl)phenoxy)nico-tinamide], the IC50 worked out at 69.6 nM.

In the case of `COc1cc(CC(=O)Nc2nc3cc(OCC(C)(C)O)ccc3s2)ccc1Oc1ncccc1C(N)=O` [Example 118, 2-(4-(2-((5-(2-hydroxy-2-methylpropoxy)benzo[d]thiazol-2-yl)amino)-2-oxoethyl)-2-methoxyphenoxy)nicotinamide], half-maximal inhibition (IC50) required 650 nM.

`CC(C)(O)COc1ccc2c(c1)N(C(=O)Cc1ccc(Oc3ncccc3C(N)=O)c(F)c1)CC2` [Example 114, 2-(2-fluoro-4-(2-(6-(2-hydroxy-2-methylpropoxy)indolin-1-yl)-2-oxoethyl)phenoxy)nicotinamide]: half-maximal inhibition (IC50) required 162 nM.

As for `Cc1nn(C)c(-c2ccc3sc(NC(=O)Cc4ccc(Oc5ncccc5C(N)=O)c(F)c4)nc3c2)c1C` [Example 027, 2-(2-fluoro-4-(2-oxo-2-((5-(1,3,4-trimethyl-1H-pyrazol-5-yl)benzo[d]thiazol-2-yl)amino)ethyl)phenoxy) nicotinamide], the IC50 stood at 5 nM.

As to `NC(=O)c1cccnc1Oc1ccc(CC(=O)Nc2nc3cc(C(=O)c4ccccc4)ccc3[nH]2)cc1` [Example 072, 2-(4-(2-((5-benzoyl-1H-benzo[d]imidazol-2-yl)amino)-2-oxoethyl)phenoxy) nicotinamide], the IC50 was 147 nM.

As to `NC(=O)c1cccnc1Oc1ccc(CC(=O)Nc2nc3cccc(C(F)(F)F)n3n2)cc1F` [Example 126, 2-(2-fluoro-4-(2-oxo-2-((5-(trifluoro-methyl)-[1,2,4]-triazolo[1,5-a]-pyridin-2-yl)amino)-ethyl)phenoxy)-nicotinamide], the IC50 came to 82 nM.

Take `Cc1nn(C)cc1-c1ccc2sc(NC(=O)Cc3ccc(Oc4ncccc4C(N)=O)c(F)c3)nc2c1` [Example 004, 2-(4-(2-((5-(1,3-dimethyl-1H-pyrazol-4-yl)benzo[d]thiazol-2-yl)amino)-2-oxoethyl)-2-fluorophenoxy)nicotinamide]: the half-inhibitory concentration (IC50) amounted to 3 nM.

`COc1ccc2nc(NC(=O)Cc3ccc(Oc4ncccc4C(N)=O)c(F)c3)n(CC3CC3)c2c1` [Example 160, 2-(4-(2-((1-(cyclopropyl-methyl)-6-methoxy-1H-benzo[d]-imidazol-2-yl)-amino)-2-oxoethyl)-2-fluorophenoxy)-nicotinamide]: the half-inhibitory concentration (IC50) came out at 39 nM.
